Earlier results on one compound are cited in patent US20100317740A1, “Method for Predicting Response to Tamoxifen” (GEORGE MASON INTELLECTUAL PROPERTIES, INC., priority 2007, published 2010).

This data set deals with node negative breast cancer with estrogen receptor on tumors. The conditions noted are these: women with node negative breast cancer and estrogen receptor on their tumors.

For the compound `CC/C(=C(\c1ccccc1)c1ccc(OCCN(C)C)cc1)c1ccccc1` [Tamoxifen], the “eligible women who do not respond to Tamoxifen therapy” value is 30-40%.
